Results reported in patent publication US8680094B2, “1, 4-benzoxazine compounds and derivatives thereof as therapeutic drugs for the treatment of neurodegenerative conditions” (Board of Regents, The University of Texas System, priority 2008, dated 2014).
Several values for one entry are separate records, joined by “and”; a condition that tells them apart may be missing. Equal entries are not always repeated.

Test system: flies expressing human APP695
Experiment: APP695-induced toxicity in Drosophila (survival of flies)
Type: in vivo
Protocol: Survival of flies expressing human APP695 compared to controls. […] Bars indicate mean±SEM. FIG. 8 is an image showing HSB-13 protects HT-22 cells against HCA-induced toxicity. HT-22 cells were treated with no additives (Control), 2 mM HCA, or 2 mM HCA+25 μM HSB-13. The appearance of the cultures at 24 hours after treatment is shown.
Expression of human APP695 was induced ubiquitously by crossing transgenic flies carrying a UAS-APP695 construct (Fossgreen et al., 1998) with flies containing an actin-GAL4 promoter using the UAS/GAL4 system (Brand and Perrimon, 1993). Flies were raised at 25° C. in the dark on 10% yeast paste containing different concentrations of HSB-13 (0, 2.5, 5, and 50 μM). The percentage of surviving APP695-expressing progeny was determined by comparing them to control progeny carrying no promoter construct obtained in the same cross and therefore raised under identical conditions as described previously (Greeve et al., 2004).

Nc1ccc2c(c1)NC(=O)/C(=C/c1cc(Br)c(O)c(Br)c1)O2 [HSB-13, (Z)-6-amino-2-(3,′5′-dibromo-4′-hydrozybenzylidene)-2H-benzo[b][1,4]oxazin-3(4H)-one]
survival rate compared to untreated flies (food containing HSB-13, all p-values<0.05): approximately 10 times
survival rate of APP-expressing flies compared to equally treated control flies (raised on food containing HSB-13, printed as 65% at 50 μM to 44% at 50 μM, untreated about 5%): 65% and 44%
